Where “and” joins values, the source holds several entries; their conditions need not be identical. Equal entries are not always repeated.
Experiments:
NEK2(h) = NEK2(h) (Homo sapiens, UniProt P51955); test: Eurofins kinase assay
PRK2(h) = PRK2(h) (Homo sapiens, UniProt Q16513); test: Eurofins kinase assay
CHK1(h) = CHK1(h) (Homo sapiens, UniProt O14757); test: Eurofins kinase assay
CDK2/cyclinE(h) = CDK2/cyclinE(h) (Homo sapiens, UniProt P24941); test: Eurofins kinase assay
PKCδ(h) = PKCδ(h) (Homo sapiens, UniProt Q05655); test: Eurofins kinase assay
ATR/ATRIP(h) = ATR/ATRIP(h) (Homo sapiens, UniProt Q13535); test: Eurofins kinase assay
ARAF = target: T1, ARAF (Homo sapiens, UniProt P10398); test: Eurofins kinase assay
T1 sequence (P10398 1-606): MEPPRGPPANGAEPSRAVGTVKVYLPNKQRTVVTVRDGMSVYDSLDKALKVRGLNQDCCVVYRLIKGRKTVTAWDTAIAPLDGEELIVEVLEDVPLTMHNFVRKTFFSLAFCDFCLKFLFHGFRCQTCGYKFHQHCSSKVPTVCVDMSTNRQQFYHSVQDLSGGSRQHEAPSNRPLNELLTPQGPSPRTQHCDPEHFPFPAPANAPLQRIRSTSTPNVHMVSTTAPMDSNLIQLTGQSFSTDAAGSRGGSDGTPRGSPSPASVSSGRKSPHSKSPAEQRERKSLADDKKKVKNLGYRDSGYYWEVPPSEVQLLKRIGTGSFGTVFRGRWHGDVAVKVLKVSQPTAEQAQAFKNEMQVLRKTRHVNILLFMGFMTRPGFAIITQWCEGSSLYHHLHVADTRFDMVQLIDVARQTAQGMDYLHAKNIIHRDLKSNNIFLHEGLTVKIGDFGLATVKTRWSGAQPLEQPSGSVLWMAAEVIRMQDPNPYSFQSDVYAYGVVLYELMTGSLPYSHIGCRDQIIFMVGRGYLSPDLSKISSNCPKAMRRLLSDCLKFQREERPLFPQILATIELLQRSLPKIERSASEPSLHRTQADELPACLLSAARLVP

PKCγ(h) = PKCγ(h) (Homo sapiens, UniProt P05129); test: Eurofins kinase assay
TIE2 = TIE2 (Homo sapiens, UniProt Q02763); test: Eurofins kinase assay
PDGFRβ(h) = PDGFRβ(h) (Homo sapiens, UniProt P09619); test: Eurofins kinase assay
Pharmacokinetic study = type: in vivo, C57BL/6 mice
Method: Blood samples were collected at each time point for analysis. Plasma samples were analyzed by liquid chromatography–mass spectrometry (LC-MS/MS).

Rsk2(h) = Rsk2(h) (Homo sapiens, UniProt P51812); test: Eurofins kinase assay
[1] = system: HCT116 (KRAS G13D) xenograft; test: In vivo efficacy, xenograft; parameters: species or system BALB/c nude mice; conditions: 16 days
Method: (§1) Human-derived colorectal cancer cell lines, LS513, HCT-116, and HT29, were subcutaneously transplanted into 6-week-old female BALB/c nude mice to establish tumor models. Additionally, the mouse cancer cell line MC38 was subcutaneously transplanted into 6-week-old female and C57BL/6 mice to induce tumor formation. […]. The treatments were administered orally once daily for 2 weeks based on the growth rate observed in the vehicle group. Tumor volume was evaluated three times a week using the formula Tumor volume (TV) = (tumor short diameter ^2 × tumor long diameter)/2. The body weight of the mice was measured three times a week to assess potential toxicity in vivo. […]

[2] = system: LS513 (KRAS G12D) xenograft; test: In vivo efficacy, xenograft; parameters: species or system BALB/c nude mice; conditions: day 17
Method: as §1

[3] = system: HT29 (BRAF V600E) xenograft; test: In vivo efficacy, xenograft; parameters: species or system BALB/c nude mice
Method: as §1

EphB4(h) = EphB4(h) (Homo sapiens, UniProt P54760); test: Eurofins kinase assay
PKA(h) = PKA(h) (Homo sapiens, UniProt P17612); test: Eurofins kinase assay
Aurora-A(h) = Aurora-A(h) (Homo sapiens, UniProt O14965); test: Eurofins kinase assay
Ros(h) = Ros(h) (Homo sapiens, UniProt P08922); test: Eurofins kinase assay
CSK(h) = CSK(h) (Homo sapiens, UniProt P41240); test: Eurofins kinase assay
PDGFRα(h) = PDGFRα(h) (Homo sapiens, UniProt P16234); test: Eurofins kinase assay
CaMKIIβ(h) = CaMKIIβ(h) (Homo sapiens, UniProt Q13554); test: Eurofins kinase assay
cSRC(h) = cSRC(h) (Homo sapiens, UniProt P12931); test: Eurofins kinase assay
Flt3(h) = Flt3(h) (Homo sapiens, UniProt P36888); test: Eurofins kinase assay
PKCη(h) = PKCη(h) (Homo sapiens, UniProt P24723); test: Eurofins kinase assay
[4] = male, C57BL/6, mouse, plasma, iv 5 mg/kg
[5] = male, C57BL/6, mouse, plasma, po 40 mg/kg

Chain of TIE2 (Q02763 23-1124): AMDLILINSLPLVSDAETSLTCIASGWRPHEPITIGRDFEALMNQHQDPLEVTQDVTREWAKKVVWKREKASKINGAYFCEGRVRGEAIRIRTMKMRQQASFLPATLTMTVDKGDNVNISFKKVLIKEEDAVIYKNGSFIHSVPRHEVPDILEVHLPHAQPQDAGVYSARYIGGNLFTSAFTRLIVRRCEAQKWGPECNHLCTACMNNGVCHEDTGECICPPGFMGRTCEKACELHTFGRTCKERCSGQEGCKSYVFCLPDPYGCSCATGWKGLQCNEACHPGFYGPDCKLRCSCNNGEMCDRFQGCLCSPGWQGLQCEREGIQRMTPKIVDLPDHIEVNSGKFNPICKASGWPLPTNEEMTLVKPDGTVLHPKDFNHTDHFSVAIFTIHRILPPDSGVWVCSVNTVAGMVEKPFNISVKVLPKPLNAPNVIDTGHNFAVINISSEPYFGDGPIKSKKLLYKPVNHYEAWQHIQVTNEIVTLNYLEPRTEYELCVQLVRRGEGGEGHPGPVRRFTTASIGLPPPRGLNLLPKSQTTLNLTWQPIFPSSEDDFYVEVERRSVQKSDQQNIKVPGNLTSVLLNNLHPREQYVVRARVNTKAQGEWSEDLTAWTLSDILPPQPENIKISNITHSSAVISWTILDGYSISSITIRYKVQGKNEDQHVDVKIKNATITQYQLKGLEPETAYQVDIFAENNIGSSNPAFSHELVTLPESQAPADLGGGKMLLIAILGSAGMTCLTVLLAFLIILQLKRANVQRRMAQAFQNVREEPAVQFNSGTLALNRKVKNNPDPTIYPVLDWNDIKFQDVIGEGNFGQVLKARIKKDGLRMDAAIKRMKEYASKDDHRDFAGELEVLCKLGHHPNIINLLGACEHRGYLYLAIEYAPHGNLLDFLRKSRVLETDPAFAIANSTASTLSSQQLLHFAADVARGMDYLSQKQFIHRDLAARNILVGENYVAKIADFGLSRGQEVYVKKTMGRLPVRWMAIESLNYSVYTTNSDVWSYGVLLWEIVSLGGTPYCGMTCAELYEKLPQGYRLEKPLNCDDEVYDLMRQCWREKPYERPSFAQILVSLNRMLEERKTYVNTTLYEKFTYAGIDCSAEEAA
Chain of Ros(h) (P08922 28-2347): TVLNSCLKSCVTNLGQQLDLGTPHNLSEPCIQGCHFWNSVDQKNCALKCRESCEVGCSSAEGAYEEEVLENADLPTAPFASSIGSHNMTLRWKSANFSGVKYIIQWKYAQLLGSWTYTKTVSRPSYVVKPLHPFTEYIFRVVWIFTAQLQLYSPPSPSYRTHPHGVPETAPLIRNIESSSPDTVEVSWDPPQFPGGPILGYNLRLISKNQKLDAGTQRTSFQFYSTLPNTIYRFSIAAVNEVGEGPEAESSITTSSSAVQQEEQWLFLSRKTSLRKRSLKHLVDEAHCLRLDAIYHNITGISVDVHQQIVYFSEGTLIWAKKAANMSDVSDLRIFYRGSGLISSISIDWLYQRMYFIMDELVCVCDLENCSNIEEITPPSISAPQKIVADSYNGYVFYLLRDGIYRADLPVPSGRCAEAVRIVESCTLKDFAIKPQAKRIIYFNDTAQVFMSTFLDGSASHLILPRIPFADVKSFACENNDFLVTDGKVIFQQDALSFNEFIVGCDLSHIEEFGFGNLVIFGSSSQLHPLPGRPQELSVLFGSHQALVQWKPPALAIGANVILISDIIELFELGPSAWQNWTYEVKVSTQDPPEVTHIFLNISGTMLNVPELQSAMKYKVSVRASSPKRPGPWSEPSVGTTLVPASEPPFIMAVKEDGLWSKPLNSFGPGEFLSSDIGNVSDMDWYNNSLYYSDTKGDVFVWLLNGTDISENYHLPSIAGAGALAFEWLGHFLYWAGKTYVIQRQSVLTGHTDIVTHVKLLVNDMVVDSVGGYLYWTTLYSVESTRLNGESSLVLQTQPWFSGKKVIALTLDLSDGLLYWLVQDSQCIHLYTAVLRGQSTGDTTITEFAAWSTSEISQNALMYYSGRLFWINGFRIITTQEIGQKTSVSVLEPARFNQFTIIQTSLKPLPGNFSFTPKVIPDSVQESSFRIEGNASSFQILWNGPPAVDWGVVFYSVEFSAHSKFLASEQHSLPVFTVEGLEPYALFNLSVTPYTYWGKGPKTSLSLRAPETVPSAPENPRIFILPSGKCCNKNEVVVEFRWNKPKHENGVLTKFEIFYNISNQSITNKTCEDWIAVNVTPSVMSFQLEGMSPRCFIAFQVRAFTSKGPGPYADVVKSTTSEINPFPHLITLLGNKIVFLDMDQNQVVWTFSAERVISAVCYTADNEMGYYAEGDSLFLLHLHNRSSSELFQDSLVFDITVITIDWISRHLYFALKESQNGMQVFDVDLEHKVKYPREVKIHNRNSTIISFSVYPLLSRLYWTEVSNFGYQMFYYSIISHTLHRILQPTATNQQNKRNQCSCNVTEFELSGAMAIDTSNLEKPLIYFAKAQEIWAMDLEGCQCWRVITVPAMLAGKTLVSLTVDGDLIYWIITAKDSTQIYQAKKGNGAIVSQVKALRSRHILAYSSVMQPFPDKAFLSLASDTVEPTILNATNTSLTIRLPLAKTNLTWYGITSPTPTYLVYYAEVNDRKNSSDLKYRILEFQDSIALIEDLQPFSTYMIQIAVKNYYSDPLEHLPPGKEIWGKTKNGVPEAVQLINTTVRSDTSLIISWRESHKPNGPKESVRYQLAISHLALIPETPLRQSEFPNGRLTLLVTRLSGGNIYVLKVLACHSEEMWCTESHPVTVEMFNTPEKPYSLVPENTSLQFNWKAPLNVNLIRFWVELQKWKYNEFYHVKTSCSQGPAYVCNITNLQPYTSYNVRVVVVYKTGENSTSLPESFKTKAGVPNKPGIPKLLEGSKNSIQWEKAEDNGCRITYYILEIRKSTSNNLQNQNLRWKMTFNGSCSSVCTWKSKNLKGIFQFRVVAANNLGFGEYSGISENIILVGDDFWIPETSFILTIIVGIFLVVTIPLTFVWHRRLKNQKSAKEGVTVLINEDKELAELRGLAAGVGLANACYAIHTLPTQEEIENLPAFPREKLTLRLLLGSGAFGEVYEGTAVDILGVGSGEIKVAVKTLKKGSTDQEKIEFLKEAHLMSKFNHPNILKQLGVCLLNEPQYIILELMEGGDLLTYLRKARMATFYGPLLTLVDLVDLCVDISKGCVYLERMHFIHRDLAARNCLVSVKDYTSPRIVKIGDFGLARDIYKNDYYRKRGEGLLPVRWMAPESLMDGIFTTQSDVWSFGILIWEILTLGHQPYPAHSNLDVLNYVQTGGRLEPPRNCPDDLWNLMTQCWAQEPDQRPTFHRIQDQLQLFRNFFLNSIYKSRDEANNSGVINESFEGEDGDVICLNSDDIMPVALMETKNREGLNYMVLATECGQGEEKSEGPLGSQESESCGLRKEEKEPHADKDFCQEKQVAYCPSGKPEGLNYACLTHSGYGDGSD
Chain of CHK1(h) (O14757 whole entry): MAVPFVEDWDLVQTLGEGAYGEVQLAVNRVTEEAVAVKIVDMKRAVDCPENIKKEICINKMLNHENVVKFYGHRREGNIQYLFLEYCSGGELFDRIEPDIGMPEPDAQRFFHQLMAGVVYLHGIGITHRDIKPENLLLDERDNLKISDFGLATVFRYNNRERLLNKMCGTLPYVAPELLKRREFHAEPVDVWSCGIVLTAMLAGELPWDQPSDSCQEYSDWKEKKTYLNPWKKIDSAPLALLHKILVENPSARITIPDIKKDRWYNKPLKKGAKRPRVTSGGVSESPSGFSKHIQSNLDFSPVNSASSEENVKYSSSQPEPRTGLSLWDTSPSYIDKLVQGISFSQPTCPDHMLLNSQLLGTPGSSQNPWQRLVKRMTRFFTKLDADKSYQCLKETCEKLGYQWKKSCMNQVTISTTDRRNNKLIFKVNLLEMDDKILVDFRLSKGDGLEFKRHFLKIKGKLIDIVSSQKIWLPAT
Chain of NEK2(h) (P51955 whole entry): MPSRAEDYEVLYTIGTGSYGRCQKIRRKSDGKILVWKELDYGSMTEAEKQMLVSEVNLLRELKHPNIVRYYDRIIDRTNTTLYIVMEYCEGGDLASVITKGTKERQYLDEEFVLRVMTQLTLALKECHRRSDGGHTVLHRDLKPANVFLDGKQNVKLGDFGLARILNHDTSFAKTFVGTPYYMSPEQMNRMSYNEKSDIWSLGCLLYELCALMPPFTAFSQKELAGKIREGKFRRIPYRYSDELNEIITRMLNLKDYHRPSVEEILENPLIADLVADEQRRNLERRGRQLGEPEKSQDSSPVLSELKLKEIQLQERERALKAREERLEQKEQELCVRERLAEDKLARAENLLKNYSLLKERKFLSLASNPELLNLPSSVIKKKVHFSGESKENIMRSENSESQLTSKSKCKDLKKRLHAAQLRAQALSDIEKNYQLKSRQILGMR
Chain of cSRC(h) (P12931 whole entry): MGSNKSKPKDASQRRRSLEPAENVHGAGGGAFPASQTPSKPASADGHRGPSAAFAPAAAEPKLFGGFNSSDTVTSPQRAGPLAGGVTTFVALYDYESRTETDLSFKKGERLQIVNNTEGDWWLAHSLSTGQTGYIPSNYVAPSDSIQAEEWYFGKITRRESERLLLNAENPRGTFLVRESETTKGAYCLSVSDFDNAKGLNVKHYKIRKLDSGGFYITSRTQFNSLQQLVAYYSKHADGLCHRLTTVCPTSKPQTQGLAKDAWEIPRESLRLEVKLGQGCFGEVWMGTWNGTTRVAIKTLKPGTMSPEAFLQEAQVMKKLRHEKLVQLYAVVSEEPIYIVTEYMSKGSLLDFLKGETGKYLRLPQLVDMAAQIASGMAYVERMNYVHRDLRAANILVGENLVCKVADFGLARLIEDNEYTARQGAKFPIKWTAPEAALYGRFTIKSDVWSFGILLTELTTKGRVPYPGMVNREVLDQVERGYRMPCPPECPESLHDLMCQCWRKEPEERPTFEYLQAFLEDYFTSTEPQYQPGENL

O=C(Nc1cc(Nc2ncccc2-c2ncnc3[nH]cnc23)ccc1F)c1cc(C(F)(F)F)cc(C(F)(F)F)c1 [SJ-C1044, N-(5-(3-(9H-purin-6-yl)pyridin-2-ylamino)-2-fluorophenyl)-3,5-bis(trifluoromethyl)benzamide]
inhibition at 10 µM (NEK2(h)): -4% | inhibition at 10 µM (PRK2(h)): -2% | inhibition at 10 µM (CHK1(h)): -2% | inhibition at 10 µM (CDK2/cyclinE(h)): 2% | inhibition at 10 µM (PKCδ(h)): -14% | inhibition at 10 µM (ATR/ATRIP(h)): 8% | IC50 (ARAF): > 10000 nM | inhibition at 10 µM (ARAF; Table S1 no. 8): 44% | inhibition at 10 µM (ARAF; second A-Raf(h) entry, Table S1 no. 62): -6% | inhibition at 10 µM (PKCγ(h)): 1% | IC50 (TIE2): 23 nM | inhibition at 10 µM (TIE2): 97% | inhibition at 10 µM (PDGFRβ(h)): 11% | sustained plasma concentration (Pharmacokinetic study; for 16 h per day, 40 mg/kg once daily, 40 mg/kg): ≥ 8000 ng/mL and ≥ 14 μM | AUC(0-t) (Pharmacokinetic study; [4]): 97.8 µg·h/mL | Cmax (Pharmacokinetic study; [4]): 11400 ng/mL | Tmax (Pharmacokinetic study; [4]): 1.6 h | AUC(0-t) (Pharmacokinetic study; [5]): 228 µg·h/mL | Cmax (Pharmacokinetic study; [5]): 14900 ng/mL | Tmax (Pharmacokinetic study; [5]): 4.3 h | bioavailability (Pharmacokinetic study; [5]): 23% | inhibition at 10 µM (Rsk2(h)): -4% | TGI ([1]; 20 mg/kg po QD): 72% | TGI ([1]; 40 mg/kg po QD): 87% | TGI ([1]; 80 mg/kg po QD): 107% | TGI ([2]; 20 mg/kg po QD): 50% | TGI ([2]; 40 mg/kg po QD): 63% | TGI ([2]; 80 mg/kg po QD): 66% | TGI ([3]; 20 mg/kg po QD): 58% | TGI ([3]; 40 mg/kg po QD): 94% | TGI ([3]; 80 mg/kg po QD): 117% | inhibition at 10 µM (EphB4(h)): -6% | inhibition at 10 µM (PKA(h)): -2% | inhibition at 10 µM (Aurora-A(h)): 3% | inhibition at 10 µM (Ros(h)): -12% | inhibition at 10 µM (CSK(h)): 3% | inhibition at 10 µM (PDGFRα(h)): -10% | inhibition at 10 µM (CaMKIIβ(h)): -5% | inhibition at 10 µM (cSRC(h)): 38% | inhibition at 10 µM (Flt3(h)): 3% | inhibition at 10 µM (PKCη(h)): 3%

Source: article PMC10378394 (Current Issues in Molecular Biology, 2023)
